Data on 5 molecules can be found in patent US20240299367A1, “METHODS OF TREATING ACUTE RESPIRATORY DISTRESS SYNDROME WITH ACTIVATORS OF TIE-2” (AERPIO PHARMACEUTICALS, INC., priority 2020, published 2024).

In series [1] the test system is polymicrobial septic shock. As to the kind of experiment: Cecal ligation and puncture (CLP) model of sepsis, survival. In kind it is in vivo, Sprague Dawley rats. To be noted: rats, SC BID days 1-5, monitored 10 days, Cpd 1 10 mg/kg, IM 20 mg/kg.
For a further series, the target named is HPTPβ (Homo sapiens (Human), UniProt P23467). As to the kind of experiment: HPTPβ inhibitory activity (IC50). In kind it is biochemical.
For series [2], the system named is SARS-COV, MERS-COV, and SARS-CoV-2. As to conditions: cell culture and animal models; cited from earlier work.
For series [3] the following is noted: 0.9% saline, cited from earlier work.
A short description of series [4]: Urine albumin/creatinine ratio (UACR) in Phase 2 and Phase 2b studies. In kind it is in vivo, human. To be noted: Phase 2, patients with evidence of diabetic nephropathy.

Where two headings read alike, the source gives them in different places.

Chain of HPTPβ (P23467 23-1997): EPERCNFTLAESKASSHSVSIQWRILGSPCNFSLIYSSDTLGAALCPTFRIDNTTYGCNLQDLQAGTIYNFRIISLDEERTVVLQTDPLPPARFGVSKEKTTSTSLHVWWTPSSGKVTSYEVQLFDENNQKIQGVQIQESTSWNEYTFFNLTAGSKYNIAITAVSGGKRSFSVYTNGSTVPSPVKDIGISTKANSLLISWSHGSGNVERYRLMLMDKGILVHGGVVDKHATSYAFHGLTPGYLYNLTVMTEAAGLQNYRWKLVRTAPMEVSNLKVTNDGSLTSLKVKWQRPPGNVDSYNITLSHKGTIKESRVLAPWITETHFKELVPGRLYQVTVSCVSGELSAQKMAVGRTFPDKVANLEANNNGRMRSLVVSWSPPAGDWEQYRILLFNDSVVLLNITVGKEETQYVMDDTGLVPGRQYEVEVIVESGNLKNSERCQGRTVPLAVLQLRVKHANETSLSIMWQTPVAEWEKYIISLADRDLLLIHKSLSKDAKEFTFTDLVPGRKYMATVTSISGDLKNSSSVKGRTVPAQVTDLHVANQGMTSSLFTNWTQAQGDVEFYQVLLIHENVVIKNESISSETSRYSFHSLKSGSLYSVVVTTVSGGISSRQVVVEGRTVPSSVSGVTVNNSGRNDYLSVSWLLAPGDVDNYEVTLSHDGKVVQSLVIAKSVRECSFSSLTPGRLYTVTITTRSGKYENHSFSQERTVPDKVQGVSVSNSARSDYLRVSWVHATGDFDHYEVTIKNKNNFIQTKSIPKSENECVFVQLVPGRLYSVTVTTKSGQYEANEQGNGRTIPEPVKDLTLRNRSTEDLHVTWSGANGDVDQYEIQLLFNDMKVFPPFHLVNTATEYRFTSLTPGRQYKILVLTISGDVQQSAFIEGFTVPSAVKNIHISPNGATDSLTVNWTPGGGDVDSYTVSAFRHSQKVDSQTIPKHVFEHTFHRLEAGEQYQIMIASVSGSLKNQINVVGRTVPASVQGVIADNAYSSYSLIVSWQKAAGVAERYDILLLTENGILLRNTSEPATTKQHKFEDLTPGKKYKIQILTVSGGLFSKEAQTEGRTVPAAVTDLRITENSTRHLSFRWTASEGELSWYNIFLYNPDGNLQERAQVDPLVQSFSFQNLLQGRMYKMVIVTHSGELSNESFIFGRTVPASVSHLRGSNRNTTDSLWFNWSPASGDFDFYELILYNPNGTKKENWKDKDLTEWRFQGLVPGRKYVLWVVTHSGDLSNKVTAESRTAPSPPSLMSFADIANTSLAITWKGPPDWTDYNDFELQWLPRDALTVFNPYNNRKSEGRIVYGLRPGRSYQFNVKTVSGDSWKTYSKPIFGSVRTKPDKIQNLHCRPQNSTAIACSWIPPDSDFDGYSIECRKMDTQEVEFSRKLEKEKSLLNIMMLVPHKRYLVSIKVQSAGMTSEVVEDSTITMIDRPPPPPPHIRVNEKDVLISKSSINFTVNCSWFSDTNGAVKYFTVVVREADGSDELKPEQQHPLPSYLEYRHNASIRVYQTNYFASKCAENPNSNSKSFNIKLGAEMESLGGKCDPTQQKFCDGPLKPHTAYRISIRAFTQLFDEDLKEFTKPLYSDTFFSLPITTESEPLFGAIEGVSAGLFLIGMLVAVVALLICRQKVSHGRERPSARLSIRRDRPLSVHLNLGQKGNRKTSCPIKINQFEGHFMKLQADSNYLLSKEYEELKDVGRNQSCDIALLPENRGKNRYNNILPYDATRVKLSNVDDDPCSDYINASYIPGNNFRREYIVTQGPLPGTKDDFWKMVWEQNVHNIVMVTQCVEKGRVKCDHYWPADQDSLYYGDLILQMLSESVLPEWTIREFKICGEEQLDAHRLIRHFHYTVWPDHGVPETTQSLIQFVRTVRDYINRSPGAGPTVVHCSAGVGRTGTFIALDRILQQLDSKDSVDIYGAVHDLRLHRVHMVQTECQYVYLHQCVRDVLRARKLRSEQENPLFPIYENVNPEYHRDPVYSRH

In series [1], `C[C@@H](O)[C@H]1C(=O)N2C(C(=O)O)=C(SCCN=CN)C[C@H]12` [IM, imipenem] showed a survival of 81%.

The molecule `Cc1nc([C@H](Cc2ccc(NS(=O)(=O)O)cc2)NC(=O)OC(C)(C)C)cs1` [AA64] gave an IC50 at HPTPβ of 33 nM.

Consider `CCC(CC)COC(=O)[C@H](C)N[P@](=O)(OC[C@H]1O[C@@](C#N)(c2ccc3c(N)ncnn23)[C@H](O)[C@@H]1O)Oc1ccccc1` [Remdesivir], for which the antiviral activity result in series [2] is “exhibits activity in cell culture and animal models”. Further, the “storage time of diluted solution” value was 24 h in series [3] (refrigerated (2° C. to 8° C.)) and “up to 4 hours” in series [3] (room temperature (20° C. to 25° C.)). In turn, `COC(=O)Cc1csc([C@H](Cc2ccc(NS(=O)(=O)O)cc2)NC(=O)OC(C)(C)C)n1` [AA70, (S)-4-(2-(tert-Butoxycarbonyl)-2-(4-(2-(2-methoxy-2-oxoyethylamino)-2-oxoethyl)thiazole-2-yl)ethyl)phenylsulfamic acid] yielded an IC50 at HPTPβ of 132 nM.

B1: ranibizumab (antibody, chains of the INN, looked up, V domains shown)
VH: EVQLVESGGGLVQPGGSLRLSCAASGYDFTHYGMNWVRQAPGKGLEWVGWINTYTGEPTYAADFKRRFTFSLDTSKSTAYLQMNSLRAEDTAVYYCAKYPYYYGTSHWYFDVWGQGTLVTVSS
VL: DIQLTQSPSSLSASVGDRVTITCSASQDISNYLNWYQQKPGKAPKVLIYFTSSLHSGVPSRFSGSGSGTDFTLTISSLQPEDFATYYCQQYSTVPWTFGQGTKVEIK
modifications: Fab
notes: anti-VEGF agent, standard-of-care intravitreal injection
In the case of B1, the UACR change entry in series [4] is recorded as “increase”.

As a reminder, the IC50 is the midpoint of a concentration-inhibition curve. A low value points to greater potency in that assay.
